Starred links: 1 amine or outer side, 2 acyl side, 3 side chain; linkers in the order of their positions; H or OH if unused. Positions of bridges follow the written chain, without caps; N, C: chain ends. Residues, ends and D or L forms follow the SMILES beside them. *: point of attachment. C18 diacid = O=C(O)CCCCCCCCCCCCCCCCC(=O)*; γGlu = O=C(O)[C@H](CCC(=O)[*:2])N[*:1]

Series [1] is described as follows: Telemetry measurement of heart rate and blood pressure in awake rats. The format is in vivo, Sprague Dawley rat. The following applies: for Heart rate: 30 min, P (vs vehicle) / Heart rate: 12 h, P (vs vehicle) / Mean arterial pressure: 30 min, P (vs vehicle) / Mean arterial pressure: 12 h, P (vs vehicle): paired t test; for Heart rate: 12 h, Mean (bpm) / Mean arterial pressure: 12 h, Mean (mmHg) / Heart rate: 30 min, Mean (bpm) / Mean arterial pressure: 30 min, Mean (mmHg): awake rats; for Heart rate: 12 h, Mean (bpm) / Mean arterial pressure: 12 h, Mean (mmHg): average of first 12 h; for Heart rate: 30 min, Mean (bpm) / Mean arterial pressure: 30 min, Mean (mmHg): first 30 min; for increase in HR: P<0.05. Here is the method:
The purpose of the study was to investigate the effect of acute dosing with the CNP compound 9482 (Chem. 137) on mean blood pressure (MAP) and heart rate (HR) in awake rats.
Procedure: The transducers are implanted in Sprague Dawley rats (Charles River) and the rats are allowed a 2-3-week period for recovery. Before surgery, the devices are registered in the software by placing them on a receiver plate and powered on. Sterile saline is added to the transducer catheter before surgery start, and the transmitter is then powered on. The transmitters are placed in the abdomen with the sensor in aorta abdominalis. Isoflurane is used as anaesthetic, and during and after surgery, the rats receive Temgesic (0.05 mg/kg s.c.), Norodyl (5 mg/kg s.c.), and Baytril (10 mg/kg s.c.) as pain relief and to prevent bacterial infection.
Study design: Rats are housed 2/cage (1 with device and 1 as social partner). All animals will have free access to water and food (altromin) throughout the entire study. The rats will be housed in light cycles with light from 6 AM to 6 PM and dark from 6 PM to 6 AM. Eight rats are divided into 2 groups according to a crossover study design.
Telemetry: Each rat is equipped with a transducer (HD-S10 from DSI) capable of measuring blood pressure, heart rate, and activity using Ponemah software with a 100 Hz frequency. During measurements, there should be no disturbances in the room that the rats are housed in to minimize variability in the data. A 4-hour baseline recording will be taken prior to start of the study to capture mean arterial pressure (MAP) and heart rate (HR) patterns in untreated, undisturbed rats. The recording period after drug administration was 24 hours.
Dosing scheme: Rats are dosed in a crossover study design with 4 rats in each group. Each rat is given a washout period of 1 week prior to the next dosing event. Dosing will be intravenous (IV) in the tail vein. Dosing of 9482 was tested in 30, 100, and 300 nmol/kg i.v. in separate experiments. The vehicle consists of 8 mM phosphate, 250 mM glycerol, pH 7.4.
Data analysis and statistics was conducted in Ponemah software and Graphpad prism. For statistics, a paired t test was applied with a confidence level of 95% and P<0.05 denoting statistical significance.

Series [2] is described as follows: PK after i.v. and s.c. administration to domestic LYD pig. The note with it: female, domestic LYD pig, pig, in vivo, sc. Here is the method:
The purpose of this study was to investigate pharmacokinetic and pharmacodynamic properties after intravenous (i.v.) and subcutaneous (s.c.) administration to Gottingen Minipig and domestic LYD pig, and to estimate bioavailability after s.c. dosing. Quantitative plasma analysis of CNP and cGMP levels were performed as described in
Animals and dosing: The pharmacokinetic and pharmacodynamic studies in Gottingen Minipig or domestic LYD pig were conducted at CRO Minerva Imaging or Novo Nordisk A/S, respectively. CNP compounds were dosed to normal female 1) Gottingen minipigs 6-12 months of age with an average weight of 22 kg or 2) domestic LYD pigs 4-5 months of age with and average weight of 80 kg. At least one week prior to dosing, permanent central venous catheters were implanted for blood sampling and intravenous (i.v.) dosing. For subcutaneous (s.c.) dosing, the pigs were ultrasound scanned and the optimal injection area laterally on the neck marked by a permanent tattoo. An insulin pen (NovoPen Echo or NovoPen 4) and insulin needle (NovoFine 32G/4 mm or NovoTwist 32G/5 mm) were used for accurate deposition of the CNP formulations in the subcutaneous fat tissue with the needle perpendicular to the skin.
CNP compounds were formulated according to the principles in General Methods of Preparation—Method G and were either A) 8 mM sodium phosphate, 250 mM glycerol, pH 6.5, B) 5 mM sodium acetate, 250 mM glycerol, pH 4.0, C) 5 mM sodium acetate, 240 mM propylene glycol, pH=4.0, D) 8 mM sodium phosphate, 250 mM glycerol, pH 7.5 or E) 20 mM sodium phosphate, 223 mM propylene glycol, pH 6.0.
Intravenously, the CNP compounds were dosed at 30-60 nmol/kg to Minipig and 15-43 nmol/kg to domestic pig using formulations A-E. Subcutaneously, the CNP compounds were dosed at 55-62 nmol/kg to Minipig and 20-30 nmol/kg to domestic pig using formulations A-D.
Sampling: Blood samples of approximately 1 mL were collected pre dose and up to 14 days post dose into EDTA-coated tubes (8 mM) for cGMP and CNP compound analysis by LC-MS. In few instances, cGMP was only analysed up to 48 hours post dose after intravenous dosing in domestic LYD pig. The blood samples were kept on wet ice for maximum 30 minutes until centrifugation for 10 minutes at 4° C. and minimum 1500G, and the plasma samples were stored at −20° C. until analysis.
Plasma concentration-time profiles were analyzed by non-compartmental PK analysis using Phoenix WinNonlin 8.1, Pharsight Inc., Mountain View, CA, USA. Calculation of the area under the plasma concentration-time curve (AUC) was based on the “linear up log down” method, and uniform weighting was used for estimation of the terminal rate constant (λz). S.c. bioavailability (F) was calculated as the dose-normalized AUC (AUC/dose) after s.c. administration divided by the AUC/dose after i.v. administration. […]

The mark [3] stands for this setting: first 30 min after dosing, 30, 100, or 300 nmol/kg i.v.

Regarding `CC[C@H](C)[C@@H]1NC(=O)[C@H](CCCNC(=N)N)NC(=O)[C@H](CC(=O)O)NC(=O)[C@H](CC(C)C)NC(=O)[C@@H]2CCCN2C(=O)[C@H](CC(C)C)NC(=O)CNC(=O)[C@H](Cc2ccccc2)NC(=O)[C@@H](NC(=O)CNC(=O)[C@H](CO)NC(=O)[C@H](CO)NC(=O)[C@H](CC(C)C)NC(=O)CNC(=O)[C@H](CCCCN)NC(=O)[C@H](CCCCN)NC(=O)[C@H](CCC(N)=O)NC(=O)[C@H](C)NC(=O)CNC(=O)[C@H](CCCCN)NC(=O)[C@H](Cc2ccc(O)cc2)NC(=O)[C@H](CCCCN)NC(=O)[C@H](CCCNC(=N)N)NC(=O)[C@H](C)NC(=O)[C@H](CCC(N)=O)NC(=O)[C@@H]2CCCN2C(=O)[C@H](Cc2c[nH]cn2)NC(=O)[C@H](CCC(=O)O)NC(=O)[C@H](CCC(N)=O)NC(=O)CC[C@H](NC(=O)CC[C@H](NC(=O)CC[C@H](NC(=O)CC[C@H](NC(=O)CC[C@H](NC(=O)CCCCCCCCCCCCCCCCC(=O)O)C(=O)O)C(=O)O)C(=O)O)C(=O)O)C(=O)O)CSSC[C@@H](C(=O)O)NC(=O)CNC(=O)[C@H](CC(C)C)NC(=O)CNC(=O)[C@H](CO)NC(=O)[C@H](CC(C)C)NC(=O)[C@H](CO)NC(=O)CNC1=O` [compound 9482] ({C18 diacid-γGlu-γGlu-γGlu-γGlu-γGlu}-QEHPQARKYKGAQKKGLSSGCFGLPLDRIGSLSGLGC-OH; disulfide 21-37), in series [1] (30 nmol/kg i.v.), the “Heart rate: 30 min, P (vs vehicle)” value is “ns”; the “Heart rate: 12 h, P (vs vehicle)” value was “ns”; the “Mean arterial pressure: 30 min, P (vs vehicle)” value is “ns”; the “Mean arterial pressure: 12 h, P (vs vehicle)” value is “ns”. Moreover, in series [1] (30 nmol/kg i.v.), the “Heart rate: 12 h, Mean (bpm)” value stood at 332 bpm; the “Mean arterial pressure: 12 h, Mean (mmHg)” value was found to be 106 mmHg; the “Heart rate: 30 min, Mean (bpm)” value is recorded as 356 bpm; the “Mean arterial pressure: 30 min, Mean (mmHg)” value stood at 116 mmHg. In series [1] (100 nmol/kg i.v.), the “Heart rate: 30 min, P (vs vehicle)” value is reported as “ns”; the “Heart rate: 12 h, P (vs vehicle)” value was determined as 0.04; the “Mean arterial pressure: 30 min, P (vs vehicle)” value was “ns”; the “Mean arterial pressure: 12 h, P (vs vehicle)” value was “ns”. In addition, in series [1] (100 nmol/kg i.v.), the “Heart rate: 12 h, Mean (bpm)” value was found to be 364 bpm; the “Mean arterial pressure: 12 h, Mean (mmHg)” value is 104 mmHg; the “Heart rate: 30 min, Mean (bpm)” value turned out to be 388 bpm; the “Mean arterial pressure: 30 min, Mean (mmHg)” value worked out at 114 mmHg. For the same compound, in series [1] (300 nmol/kg i.v.), the “Heart rate: 30 min, P (vs vehicle)” value is recorded as “ns”; the “Heart rate: 12 h, P (vs vehicle)” value came to 0.03; the “Mean arterial pressure: 30 min, P (vs vehicle)” value was “ns”; the “Mean arterial pressure: 12 h, P (vs vehicle)” value is “ns”. Further, in series [1] (300 nmol/kg i.v.), the “Heart rate: 12 h, Mean (bpm)” value came out at 355 bpm; the “Mean arterial pressure: 12 h, Mean (mmHg)” value is given as 102 mmHg; the “Heart rate: 30 min, Mean (bpm)” value worked out at 370 bpm; the “Mean arterial pressure: 30 min, Mean (mmHg)” value was 111 mmHg. For the same compound, in series [1] (average of the first 12 h, three tested doses i.v.), the “MAP compared to vehicle” value is recorded as “no differences”. Further, in series [1] (setting [3]), the “HR compared to vehicle” value is listed as “no difference” and the “MAP compared to vehicle” value was “no difference”. In addition, the “change in HR” value in series [1] (first 12 h, 30 nmol/kg i.v.) was “No change”. Besides, in series [1] (first 12 h, 100 nmol/kg i.v.), the “increase in HR” value is on record as 8.8±10.1%. For the same compound, in series [1] (first 12 h, 300 nmol/kg i.v.), the “increase in HR” value was 6.4±6.6%.

For orientation: bioavailability means dose-corrected exposure relative to a reference, in per cent. The low end stands for poor availability, the high end for good availability. `CC[C@H](C)[C@@H]1NC(=O)[C@H](CCCNC(=N)N)NC(=O)[C@H](CC(=O)O)NC(=O)[C@H](CC(C)C)NC(=O)[C@H](CCCCN)NC(=O)[C@H](CC(C)C)NC(=O)CNC(=O)[C@H](Cc2ccccc2)NC(=O)[C@@H](NC(=O)CNC(=O)[C@H](CCCCN)NC(=O)[C@H](CO)NC(=O)[C@H](CC(C)C)NC(=O)CNC(=O)[C@H](CCCCN)NC(=O)[C@H](CCCCN)NC(=O)[C@H](CCC(N)=O)NC(=O)[C@H](C)NC(=O)CNC(=O)[C@H](Cc2c[nH]cn2)NC(=O)[C@H](CCC(=O)O)NC(=O)COCCOCCNC(=O)COCCOCCNC(=O)CC[C@H](NC(=O)CCCCCCCCCCCCCCCCC(=O)O)C(=O)O)CSSC[C@@H](C(=O)O)NC(=O)CNC(=O)[C@H](CC(C)C)NC(=O)CNC(=O)[C@H](CO)NC(=O)[C@H](CC(C)C)NC(=O)[C@H](CO)NC(=O)CNC1=O` [compound 1235]: the bioavailability in series [2] came out at 25%.

(Values after patent US20240209028A1, “CNP COMPOUNDS” (priority 2022, published 2024).)
